# Like-named read-outs stand apart in the source and are kept apart here.
# Key:
# [1] = tested on: Staphylococcus Epidermidis; conditions: 2% HP
# E-Coli = conditions: 2% HP
# [2] = Dissociation of PAA in aqueous solution; conditions: pH 9.5
# [3] = Stability of PAA/NVPA in alkaline solution (ion-exchange chromatography); assay type: physicochemical; conditions: for total PAA decomposed: pH adjusted to 9.3 with sodium hydroxide
# Experimental: PAA is not very stable in both acidic and basic solutions (reactions 2 and 3), and is decomposed into acetic acid and oxygen easily. Additionally, PAA is decomposed by metal catalysis and hydrolysis, respectively, in an aqueous solution. […] When sodium hydroxide was used to adjust the pH of PAA solution to 9.3, about 80% of the total PAA were decomposed in 1 minute, with more than 90% being decomposed in 5 minutes. (FIG. 4).
# Rapid decomposition of PAA will result in a loss of the disinfecting ability. Thus, it is critical to maintain PAA relatively stable in an alkaline solution. When pH was adjusted partially by sodium carbonate, greater than 90% of the total PAA was maintained in the 10 minutes (FIG. 4). The addition of a metal complexing agent, such as sodium pyrophosphate, etc., may be used to stabilize PAA. It is very important to maintain a relatively long pot-life of NVPA, because some microorganisms are difficult to being killed. Such microorganisms may require at least 3-5-minutes of contact time with the disinfecting detergent. Since NVPA is not very stable, the formulation of the invention is divided to two parts to preserve a long shelf life of PAA. The two parts will be mixed just prior to use. After mixing, PAA will be converted to NVPA and 90% of the total PAA will remain for at least 10 minutes.
# FIG. 4. The pH of PAA solution was 9.3. The initial concentrations of PAA and HP were 0.2% (w/w %) and 4% (w/w %), respectively. The pH of the solution was adjusted by sodium hydroxide solution or sodium phosphate solution, and sodium carbonate or a stabilizer such like sodium pyrophosphate was used to stabilize PAA. The quantitative determination of PAA/NVPA was performed by ion-exchange chromatography.
SMILES,Disinfecting efficacy ([1]; contact time 1 minute),Disinfecting efficacy ([1]; contact time 2 minutes),Disinfecting efficacy (E-Coli; contact time 1 minute),Disinfecting efficacy (E-Coli; contact time 2 minutes),share of initial PAA concentration existing in this state [2],"total PAA maintained ([3]; pH adjusted partially by sodium carbonate, in 10 minutes)",total PAA decomposed ([3]; in 1 minute),total PAA decomposed ([3]; in 5 minutes)
"OO [HP, hydrogen peroxide]",~90%,~99%,~90%,~99%,–,–,–,–
"CC(=O)OO [NVPA, non-volatile peracetate]",–,–,–,–,95%,–,–,–
"CC(=O)OO [PAA, Peracetic Acid]",–,–,–,–,5%,greater than 90%,about 80%,more than 90%

# — patent publication US10226048B2 (priority 2014, dated 2019)
